US10562944B2, “Herbicide-resistant protein, encoding gene and use thereof” (BEIJING DABEINONG BIOTECHNOLOGY CO., LTD., priority 2015, dated 2020)

Experiments:
[1] = tested on: Arabidopsis T1 plants transformed with 24DT21 nucleotide sequence; test: Herbicide resistance effect test of transgenic Arabidopsis T1 plants (spraying); type: in vivo, Arabidopsis thaliana; details: genotype 24DT21, 560 g ae/ha (1x)
Excerpt: (§1) 24DT21 gene was used to transform Arabidopsis for the first time. At first, T1 transformants were selected from the background of un-transformed seeds, using glufosinate-ammonium selection scheme. About 20000 T1 seeds are screened among which 139 strains of T1 generation positive transformants (PAT gene) were identified, i.e. the transformation efficiency was about 0.7%. Herbicide resistance effect tests to 2,4-D dimethyl ammonium salt and agroxone of Arabidopsis T1 plants transformed with 24DT21 nucleotide sequence, control nucleotide sequence respectively and wild-type Arabidopsis plants were performed after 18 days of planting.
(§2) Arabidopsis T1 plants transformed with 24DT21 nucleotide sequence, control nucleotide sequence respectively and wild-type Arabidopsis plants were sprayed with 2,4-D dimethyl ammonium salt (560 g ae/ha, 1-fold concentration in field), agroxone (560 g ae/ha, 1-fold concentration in field) and blank solvent (water). Resistance conditions of the plants were counted 7 days and 14 days after spraying. Plants with growth conditions consistent with blank solvent (water) 7 days after spaying were classified as highly resistant plants; Plants with curly rosette leaves 7 days after spaying were classified as moderately resistant plants; Plants incapable of bolting 14 days after spaying were classified as low-resistant plants and the dead plants 14 days after spaying were classified as non-resistant plants. Because each Arabidopsis T1 plant is an independent transformation event, significant differences of individual T1 responses can be expected under a given dose.

[2] = tested on: wild type soybean plants (CK1); test: Herbicide-resistance effect of wild type soybean (spraying, damage degree); type: in vivo; details: wild-type soybean strain CK1, 2240 g ae/ha (4x)
Protocol: (§3) Herbicide resistance effects tests to 2,4-D dimethyl ammonium salt and agroxone of soybean plants containing 24DT21 nucleotide sequence and control nucleotide sequence respectively and wild type soybean plants (stages V3-V4) were performed respectively.
(§4) Soybean plants containing 24DT21 nucleotide sequence, control nucleotide sequence and wild type soybean plants were taken and spayed with 2,4-D dimethyl ammonium salt (2240 g ae/ha, four-folds concentration in field), agroxone (2240 g ae/ha, four-folds concentration in field) and blank solvent (water). Take statistics of the damage degree of each plant caused by herbicides according to the curling degree of leaves and the damage degree of growing point six hours ([…]), two days (2DAT), seven days (7DAT) and 14 days (14DAT) after spraying respectively: if leaves are flat like wild-type leaves and the growing point is intact, the damage degree is 0%; if leaves curl up and wilt and the growing point is died, the damage degree is 100%. There are three strains contained a transferred 24DT21 nucleotide sequence (S1, S2 and S3), two strains contained a transferred control sequence (S4 and S5) and one wild-type strain (CK1) in total; select 10˜15 plants from each strain for testing.

[3] = tested on: Corn plants containing 24DT21 nucleotide sequence (S6, S7, S8); test: Herbicide-resistance effect test of transgenic corn T1 plants (spraying, prop root development); type: in vivo; details: 8960 g ae/ha (16x), 21 days after spraying; for Abnormal development of brace roots / Normal development of brace roots: number of plants
Protocol: (§5) Herbicide resistance effects tests to 2,4-D dimethyl ammonium salt and agroxone of corn plants containing 24DT21 nucleotide sequence, control nucleotide sequence respectively and wild type corn plants (stages V3-V4) were performed respectively.
(§6) Corn plants containing 24DT21 nucleotide sequence, control nucleotide sequence respectively and wild type corn plants were taken and spayed with 2,4-D dimethyl ammonium salt (8960 g ae/ha, 16-folds concentration in field), agroxone (8960 g ae/ha, 16-folds concentration in field) and blank solvent (water) respectively. Prop root development was counted 21 days after spaying. Three strains (S6, S7 and S8) of corn plants transformed with 24DT21 nucleotide sequence, two strains (S9 and S10) of corn plants transformed with control nucleotide sequence and 1 strain of wild type (CK2) corn were selected and 10-15 plants from each stain were tested.

[4] = tested on: wild-type Arabidopsis plants; test: Herbicide resistance effect test of wild-type Arabidopsis (spraying); type: in vivo, Arabidopsis thaliana; details: genotype Wild, 560 g ae/ha (1x)
Excerpt: as §1, §2

[5] = tested on: Corn plants containing control nucleotide sequence (S9, S10); test: Herbicide-resistance effect test of corn plants, control sequence (spraying, prop root development); type: in vivo; details: 8960 g ae/ha (16x), 21 days after spraying; for Abnormal development of brace roots / Normal development of brace roots: number of plants
Protocol: as §5, §6

[6] = tested on: Arabidopsis T1 plants transformed with control nucleotide sequence; test: Herbicide resistance effect test of Arabidopsis T1 plants, control sequence (spraying); type: in vivo, Arabidopsis thaliana; details: genotype Control, 560 g ae/ha (1x)
Excerpt: as §1, §2

[7] = tested on: Soybean plants containing control nucleotide sequence (S4, S5); test: Herbicide-resistance effect of soybean plants, control sequence (spraying, damage degree); type: in vivo; details: 2240 g ae/ha (4x); for Average damage % 6 HAT: 6 hours after spraying; for Average damage % 2 DAT: 2 days after spraying; for Average damage % 7 DAT: 7 days after spraying; for Average damage % 14 DAT: 14 days after spraying
Protocol: as §3, §4

[8] = tested on: wild type corn plants (CK2); test: Herbicide-resistance effect test of wild type corn (spraying, prop root development); type: in vivo; details: wild type corn strain CK2, 8960 g ae/ha (16x), 21 days after spraying
Protocol: as §5, §6

[9] = tested on: Soybean plants containing 24DT21 nucleotide sequence (S1, S2, S3); test: Herbicide-resistance effect of transgenic soybean T1 plants (spraying, damage degree); type: in vivo; details: 2240 g ae/ha (4x); for Average damage % 6 HAT: 6 hours after spraying; for Average damage % 2 DAT: 2 days after spraying; for Average damage % 7 DAT: 7 days after spraying; for Average damage % 14 DAT: 14 days after spraying
Protocol: as §3, §4

[10] = number of plants of 32 dead 14 days after spraying
[11] = number of plants of 32 incapable of bolting 14 days after spraying
[12] = number of plants of 32 with curly rosette leaves 7 days after spraying
[13] = number of plants of 32 with growth consistent with blank solvent 7 days after spraying
[14] = corn strain S9 (control sequence)
[15] = corn strain S10 (control sequence)
[16] = soybean strain S4 (control sequence)
[17] = soybean strain S5 (control sequence)

Cc1cc(Cl)ccc1OCC(=O)O [agroxone]
Non-resistant [1, 10]: 7
Low resistant [1, 11]: 2
Moderate resistant [1, 12]: 2
High resistant [1, 13]: 21
Average damage % 6 HAT ([2]; 6 hours after spraying): 34%
Average damage % 2 DAT ([2]; 2 days after spraying): 61%
Average damage % 7 DAT ([2]; 7 days after spraying): 82%
Average damage % 14 DAT ([2]; 14 days after spraying): 100%
Proportion of normal development of brace roots ([3]; corn strain S6 (24DT21)): 100.00%
Abnormal development of brace roots ([3]; corn strain S6 (24DT21)): 0
Normal development of brace roots ([3]; corn strain S6 (24DT21)): 11
Proportion of normal development of brace roots ([3]; corn strain S7 (24DT21)): 100.00%
Abnormal development of brace roots ([3]; corn strain S7 (24DT21)): 0
Normal development of brace roots ([3]; corn strain S7 (24DT21)): 12
Proportion of normal development of brace roots ([3]; corn strain S8 (24DT21)): 100.00%
Abnormal development of brace roots ([3]; corn strain S8 (24DT21)): 0
Normal development of brace roots ([3]; corn strain S8 (24DT21)): 13
Non-resistant [4, 10]: 32
Low resistant [4, 11]: 0
Moderate resistant [4, 12]: 0
High resistant [4, 13]: 0
Proportion of normal development of brace roots [5, 14]: 0%
Abnormal development of brace roots [5, 14]: 13
Normal development of brace roots [5, 14]: 0
Proportion of normal development of brace roots [5, 15]: 0%
Abnormal development of brace roots [5, 15]: 10
Normal development of brace roots [5, 15]: 0
Non-resistant [6, 10]: 32
Low resistant [6, 11]: 0
Moderate resistant [6, 12]: 0
High resistant [6, 13]: 0
Average damage % 6 HAT [7, 16]: 38%
Average damage % 2 DAT [7, 16]: 69%
Average damage % 7 DAT [7, 16]: 87%
Average damage % 14 DAT [7, 16]: 100%
Average damage % 6 HAT [7, 17]: 47%
Average damage % 2 DAT [7, 17]: 74%
Average damage % 7 DAT [7, 17]: 92%
Average damage % 14 DAT [7, 17]: 100%
Proportion of normal development of brace roots [8]: 0%
Abnormal development of brace roots ([8]; number of plants): 15
Normal development of brace roots ([8]; number of plants): 0
Average damage % 6 HAT ([9]; soybean strain S1 (24DT21)): 10%
Average damage % 2 DAT ([9]; soybean strain S1 (24DT21)): 5%
Average damage % 7 DAT ([9]; soybean strain S1 (24DT21)): 0%
Average damage % 14 DAT ([9]; soybean strain S1 (24DT21)): 0%
Average damage % 6 HAT ([9]; soybean strain S2 (24DT21)): 16%
Average damage % 2 DAT ([9]; soybean strain S2 (24DT21)): 11%
Average damage % 7 DAT ([9]; soybean strain S2 (24DT21)): 6%
Average damage % 14 DAT ([9]; soybean strain S2 (24DT21)): 0%
Average damage % 6 HAT ([9]; soybean strain S3 (24DT21)): 7%
Average damage % 2 DAT ([9]; soybean strain S3 (24DT21)): 4%
Average damage % 7 DAT ([9]; soybean strain S3 (24DT21)): 0%
Average damage % 14 DAT ([9]; soybean strain S3 (24DT21)): 0%
